Tests used:
[1] = test system: Sprague Dawley male rats; test: Sexual behaviour of normal (sexually vigorous) male rats; format: in vivo, rat; conditions: Compound (1) 15 mg/kg or fluoxetine 20 mg/kg i.p., 1 h before test, vs vehicle
Method: The potentially stimulatory effect of Compound (1) on male sexual behaviour has been tested on sexually vigorous rats. Sprague Dawley male rats (Charles River, UK) were kept, 4 rats per cage, in a reversed lighting regime (12:12 hours, lights off at 5.00 h), with free access to food and water. The rats were pre-selected by being presented with a receptive female at 4 days intervals, i.e. every third day (having 2 clear days between presentations) until completing 6-7 days of baseline determination. The animals showing consistently vigorous behaviour (ejaculatory latencies <300 s) were chosen for further experiments (n=24). Animals were randomised into three groups. All animals received all three treatments following a latin-square design. Treatments were administered once a week, with a baseline test in between treatments (4 days intervals between baseline and test day). Treatments were Compound (1) (15 mg/kg, dissolved in 50% 2-hydroxypropyl-β-cyclodextrin in saline), vehicle, or Fluoxetine (20 mg/kg dissolved in 100% DMSO). All treatments were administered i.p. in a 1 ml/kg volume, 1 h before tests.
For all the sexual behaviour tests, the males were placed in an observation arena (50-60 cm diameter), starting 5 hours into the dark cycle and observed under red illumination. Three to 4 minutes after placing the male in the arena, a receptive female (ovariectomised, bearing a 7 mm Silastic implant of oestradiol benzoate) was introduced to the arena and the following parameters noted: Mount Latency: time (in seconds) taken between introduction of female and first mount. A maximum time of 15 minutes (900 seconds) was allowed, and the test terminated if no mounts were recorded within that time (FIG. 11), Intromission Latency: time (in seconds) taken between introduction of female and first intromission (FIG. 12), Number of Mounts: to reach ejaculation. When ejaculation was not reached, the number of mounts was not analyzed, Number of Intromissions: to reach ejaculation. When ejaculation was not reached, the number of intromissions was not analyzed (FIG. 13 is number of mounts+intromissions), Ejaculation Latency: time (in seconds) taken from first intromission to ejaculation. A maximum time of 30 minutes (1800 seconds) was given, and the test terminated if ejaculation was not achieved in that time (FIG. 14), and Refractory Period: time (in seconds) taken from ejaculation to the first mount of the next series of sexual activity. In those animals reaching ejaculation the test was terminated at the end of the refractory period, as indicated by the first mount of the next sexual cycle (FIG. 15).
A one-way ANOVA followed by Dunnett's t test was used to compare treated vs vehicle groups each day of testing, for all the sexual behaviour parameters. (*P<0.05, **P<0.01; n=15-16).

[2] = test system: Sprague Dawley male rats; test: Sexual behaviour of sexually dysfunctional (fluoxetine-treated) male rats; format: in vivo, rat; conditions: fluoxetine 20 mg/kg i.p. 3 days (vs vehicle+vehicle); day 4 Compound (1) 15 mg/kg or yohimbine 2 mg/kg i.p. 1 h before test (vs fluoxetine+vehicle)
Method: Sprague Dawley male rats (Charles River, UK) were kept, 4 rats per cage, in a reversed lighting regime (12:12 hours, lights off at 5.00 h), with free access to food and water. The rats were pre-selected by being presented with a receptive female at […], i.e. every third day (haying 2 clear days between presentations) until completing 6-7 trials of baseline determination. The animals showing consistently vigorous behaviour (ejaculatory latencies <300 s) were chosen for further experiments. Animals were treated for 3 consecutive days with either vehicle (water) or fluoxetine (20 mg/kg, i.p., in a 2 ml/kg dosing volume). On the fourth day, the animals treated with water received vehicle (veh+veh) and the animals treated with fluoxetine received one of the three following treatments: Compound (1) (15 mg/kg, dissolved in 50% 2-hydroxypropyl-β-cyclodextrin in saline), vehicle (cyclodextrine), or yohimbine (2 mg/kg dissolved in water). All treatments were administered i.p. in a 1 ml/kg volume, 1 h before tests.
For all the sexual behaviour tests, the males were placed in an observation arena (50-60 cm diameter), starting 5 hours into the dark cycle and observed under red illumination. Three to 4 minutes after placing the male in the arena, a receptive female (ovariectomised, bearing a 7 mm Silastic implant of oestradiol benzoate) was introduced to the arena and the following parameters noted: Mount Latency: time (in seconds) taken between introduction of female and first mount. A maximum time of 15 minutes (900 seconds) was allowed, and the test terminated if no mounts were recorded within that time (FIG. 16), Ejaculation Latency: time (in seconds) taken from first intromission to ejaculation. A maximum time of 30 minutes (1800 seconds) was given, and the test terminated if ejaculation was not achieved in that time (FIG. 17), Percentage of males achieving ejaculation within 30 minutes was calculated (FIG. 18).
A one-way ANOVA followed by Dunnett's t test was used to compare the fluoxetine+vehicle group and other groups for mount and ejaculatory latencies. Percentage of animals ejaculating was analysed using a Chi-square test followed by Fisher's test. (*: P<0.05, **: P<0.01, ***: P<0.001; n=15-19).

[3] = test system: ovariectomised female Sprague Dawley rats; test: Female rat sexual proceptivity (time investigating male vs female stimulus); format: in vivo; conditions: day 1; Compound (1) 15 mg/kg i.p. 1 h before; progesterone 0.5 mg/0.1 ml s.c. 4 h before; vs vehicle, P<0.01
Method: Ovariectomised adult female Sprague Dawley rats (180-200 g, from Charles River) were housed in groups of 6 in a reversed lighting system of 12 h light:dark (lights off 7.00-19.00 h). Two weeks after ovariectomy they were used for sexual activity tests. The experiments started at least 5 h into the dark period.
Tests were carried out in a circular arena of 90 cm diameter, surrounded by a 30 cm high wall. Two small cages with wire-mesh front (15×15 cm) are fixed into the wall such that the front of the cage is <> with the wall and the 2 cages are opposite each other. They contained two stimuli animals: an intact sexually experienced male and a receptive female (ovariectomised, primed with 5 μg oestradiol benzoate dissolved in corn oil and injected subcutaneously 48 hours before the test and with 0.5 mg of progesterone four hours before the test). Sexually naive test and control animals were used. Forty eight hours before the tests, both the test and control animals were primed with 5 μg oestradiol benzoate. For animals used as positive controls, progesterone (0.5 mg/0.1 ml) was dissolved in corn oil and administered subcutaneously (s.c.), 4 h before the test. Test and control animals were introduced one at a time for 10 minute periods into the arena. During the 10 min test, the time that the test or positive control animal spent investigating each stimulus animal was noted. The arena was thoroughly cleaned between animals. The position of the male/female stimuli boxes was randomised between animals, in order to avoid place preference. The difference in the percentage of time spent investigating the male minus the female stimuli was calculated, out of the total time spent investigating stimuli animals.
Compound (1) was dissolved in 100% β-cyclodextrin and then diluted with saline to a final solution of 50% 2-hydroxypropyl-β-cyclodextrin. It was administered intraperitoneally (i.p.) at doses of 3 and 10 mg/kg, in a dosing volume of 1 ml/kg, 1 h before tests. Progesterone (0.5 mg/0.1 ml) was dissolved in corn oil and administered subcutaneously (s.c.), 4 h before test, as a positive control.
Ovariectomised adult female Sprague Dawley rats (180-200 g) were housed in groups of 5 in a reversed lighting system of 12 h light:dark (lights off 5.00-17.00 h). They were used for the experiments at least two weeks after ovariectomy. Forty eight hours before tests, the animals were primed with oestradiol benzoate (5 μg/0.1 ml in corn oil, s.c.). On day 1, progesterone (0.5 mg/0.1 ml, in corn oil, s.c.) was administered to one of the groups 4 h before tests, as a positive control. Compound (1) (15 mg/kg, i.p.) was administered in 50% 2-hydroxypropyl-β-cyclodextrin, 1 h before tests. The test lasted 10 minutes and was carried out as described before. The difference in the percentage of time spent investigating the male minus the female stimuli was calculated, out of the total time spent investigating stimuli animals. Animals were submitted to a test on day 1 and on day 15. From day 2 to 14 the Compound (1) group received a daily injection of the compound (15 mg/kg, i.p.), while both the vehicle and the progesterone groups received an injection of vehicle. On day 15 the test took place again, as described for day 1.
Ovariectomised female rats (Sprague Dawley, obtained from Charles River, UK) were stereotaxically implanted (coordinates 0.89 mm behind Bregma, 1.3 mm lateral and 2.5 mm vertical) with stainless steel cannulae (6 mm long, O.D. 0.75 mm), held in place with dental cement. Animals were housed in groups of three and returned to a reversed lighting system of 12 h light:dark (lights off 5.00-17.00 h). Correct placement of the cannulae was assessed post-mortem. Rats were used for tests two weeks after ovariectomy (one week after cannulation). The experiments started at least 5 h into the dark period. […]

[4] = test system: ovariectomised female Sprague Dawley rats; test: Inhibition of female rat sexual proceptivity by NMB and its antagonism; format: in vivo
Method: Ovariectomised female rats (Sprague Dawley, obtained from Charles River, UK) were stereotaxically implanted (coordinates 0.89 mm behind Bregma, 1.3 mm lateral and 2.5 mm vertical) with stainless steel cannulae (6 mm long, O.D. 0.75 mm), held in place with dental cement. Animals were housed in groups of three and returned to a reversed lighting system of 12 h light:dark (lights off 5.00-17.00 h). Correct placement of the cannulae was assessed post-mortem. Rats were used for tests two weeks after ovariectomy (one week after cannulation). The experiments started at least 5 h into the dark period. Forty eight hours before tests, the animals were primed with 5 μg oestradiol benzoate (OB) (s.c, in corn oil) and adapted to the apparatus (in the absence of stimuli animals) for 10 min on 2 consecutive days prior testing. The 10 min test was carried out as previously described. The difference in the percentage of time spent investigating male minus female was calculated, out of the total time spent investigating stimuli.
Progesterone (Prog, 0.5 mg/0.1 ml) was dissolved in corn oil and administered subcutaneously (s.c.), 4 h before test, to induce proceptive behaviour. Compound (1) (15 mg/kg, i.p.) was dissolved in 50% 2-hydroxypropyl-β-cyclodextrin in saline and administered 1 h before the i.c.v. administration. Neuromedin B was obtained from Bachem, UK. It was dissolved in isotonic saline and administered i.c.v. over a 30 sec period, with the aid of a pump set to deliver a flow of 10 μl/min, 10 min before tests. The dosing volume was 5 μl/rat. Each rat received a total amount of 100 ng.
From the present study we can conclude that stimulation of BB1 receptors with an agonist results in inhibition of proceptive behaviour. This inhibitory effect may be prevented by the presence of an antagonist. e.g. Compound (1) In FIG. 5 the bars represent percentage of time spent investigating male, minus the percentage of time spent investigating the female stimuli+SEM, (n=8-12 per group). ***P<0.001 vs progesterone (One-way ANOVA followed by Dunnett's test).

[5] = test system: ovariectomised female Sprague Dawley rats; test: Plasma sexual hormone levels (radioimmunoassay) in ovariectomised female rats; format: in vivo, rat; conditions: Compound (1) 3-10 mg/kg 1 h, progesterone 0.5 mg/0.1 ml s.c. 4 h before blood collection; vs vehicle
Method: Ovariectomised adult female Sprague Dawley rats (180-200 g) were housed in groups of 6 in a reversed lighting system of 12 h light:dark (lights off 7.00-19.00 h). They were used for the experiments at least two weeks after ovariectomy. Forty eight hours before tests, the animals were primed with oestradiol benzoate (5 μg/0.1 ml in corn oil, s.c.). Progesterone (0.5 mg/0.1 ml, in corn oil, s.c.) was administered 4 h before blood collection, as a positive control. Compound (1) (3-10 mg/kg, i.p.) was administered in 50% 2-hydroxypropyl-β-cyclodextrin, 1 h prior to blood collection. Blood was collected from the trunk, after decapitation. It was immediately centrifuged (3500 r.p.m., 4° C., 5 min) and the plasmas frozen until assayed for hormonal content, using commercially available radioimmunoassay kits (^125I-labelled hormones) for oestradiol, progesterone, LH, FSH and prolactin.

`CNCCC(Oc1ccc(C(F)(F)F)cc1)c1ccccc1` (stereo not shown) [fluoxetine] was tested, and the Ejaculation latency [1] was “also increased”, the Intromission latency [1] was “significantly increased” and the Mount latency [1] was “significantly increased”. For the same compound, the Refractory period [1] was “also increased”, the “number of mounts and intromissions required to achieve ejaculation” value [1] was “No changes” and the Ejaculation latency [2] was “significantly increased”. For the same compound, the Mount latency [2] was “significantly increased” and the “percentage of animals ejaculating (within 30 minutes)” value [2] was “significantly lower”.

`CC(=O)[C@H]1CC[C@H]2[C@@H]3CCC4=CC(=O)CC[C@]4(C)[C@H]3CC[C@]12C` [progesterone, reference compound] was tested, and the “effect on proceptivity, day 1” value [3] was “stimulatory effect on proceptivity”, the “percentage of time spent investigating the male stimulus” value ([4]; progesterone 0.5 mg/0.1 ml s.c. 4 h before test, vs vehicle group) was “increased the percentage of time spent investigating the male stimulus” and the LH plasma levels [5] was “significant decrease”. For the same compound, the progesterone plasma levels [5] was “significant increase”.

In the case of neuromedin B [NMB], the “proceptivity in progesterone-treated rats” value ([4]; NMB 100 ng i.c.v. 10 min before test) is reported as “significantly reduced proceptivity”.

From patent US20040087561A1, “Treatment of sexual dysfunction” (priority 2000, published 2004)
